# Results: paper PMC9412414, “A Study on Repositioning Nalidixic Acid via Lanthanide Complexation: Synthesis, Characterization, Cytotoxicity and DNA/Protein Binding Studies” (Pharmaceuticals, 2022)
# Legend:
# [1] = target: T1, human serum albumin (HSA) (Homo sapiens, UniProt P02768); experiment: HSA fluorescence quenching binding study; details: for Ka (association binding constant), HSA / n1 (Number of Binding Sites), HSA / n2 (Hill Coefficient), HSA / Kd / fa (fraction of fluorophore accessible to the quencher), HSA / Kq (bimolecular quenching constant), HSA: 298 K; for Kd: read-out: Kd (dissociation constant), HSA; for fa (fraction of fluorophore accessible to the quencher), HSA / Ksv* (Stern–Volmer quenching constant), HSA: compound 0–8 µM; for Ksv* (Stern–Volmer quenching constant), HSA: Tris-HCl pH 7.4, 298 K; for Kq (bimolecular quenching constant), HSA: from Ksv* with τ0 = 10^−8 s
# T1 construct: purchased Sigma-Aldrich Chemical Co. (Schnelldorf, Germany)
# Protocol: (§1) Using a Jasco FP 6500 spectrofluorometer (Jasco, Tokyo, Japan) and quartz cells with a 1 cm path length, the fluorescence spectra of HSA and apo-Tf were recorded in the presence and absence of the examined substances. The 2.5 mL samples containing 2.5 µM HSA or 1 µM apo-Tf were titrated by adding 5 µL of the tested substance at a time, a volume that corresponded to a 1 µM increase in concentration. The concentration range used for these experiments varied from 0 to 8 µM. The relevant spectra were collected in the emission domains of 300–500 nm (HSA) and 305–500 nm (apo-Tf) after 3 min of continuous stirring at room temperature, using excitation wavelengths of 280 nm (HSA) and 295 nm (apo-Tf).
# (§2) Experiments were conducted in a pH = 7.4 Tris-HCl buffer (5 mM Tris-HCl/50 mM NaCl for HSA and 5 mM Tris-HCl/50 mM NaCl/25 mM NaHCO3 for apo-Tf).
# (§3) The following modified Stern–Volmer equation has been used to calculate the Stern–Volmer constant, which will be denoted as KSV* in order to differentiate it from the Stern–Volmer constant calculated for the DNA binding experiments:(5) F0/F0−F=1/faKsv*[Q]+1/fa where F0 and F are the fluorescence intensities in the absence and presence of the tested compounds, fa is the fraction of fluorophore accessible to the quencher (the tested compounds), [Q] is the quencher concentration, and KSV* (M^−1) is the Stern–Volmer constant; the plot of F0/(F0 − F) against 1/[Q] yields KSV as the slope and fa as the y intercept.
# (§4) Subsequently, the bimolecular quenching rate constant was obtained by using Equation (6):(6) Ksv^*=Kqτ0
# (§5) Kq (M^−1·s^−1) is the bimolecular quenching rate constant and τ0 is the fluorophore’s lifespan in the absence of the investigated chemicals (10^−8 s). The value of Kq can be used to assess whether the quenching phenomena have an underlying static or dynamic mechanism.
# (§6) Using the following equation, the affinity constant (Ka) and the number of binding sites (n) have been calculated: (7) lgF0−F/F=lgKa+nlg[Q]
# (§7) The binding affinity, Kd, can be calculated using the quadratic function below:(8) F0−F/F0−Fb=[P]t+[Q]+Kd−([P]t+[Q]+Kd)^2−4[P]t[Q]/2[P]t where F and F0 are the fluorescence intensities of the protein in the presence and absence of the quencher, respectively, Fb is the fluorescence of a fully bound protein–quencher, [P]t is the total concentration of the protein, and [Q] is the concentration of the added quencher. Each binding isotherm was plotted against the total quencher concentration in solution as a function of bound to free protein (F/F0).
# (§8) The isotherms were then fitted using the nonlinear regression function below:(9) F/F0= F1+(F2−F1)Kdn/Kdn+[Q]^n where n represents the Hill coefficient, F1 and F2 are the horizontal and vertical asymptotes, respectively. The Kd in Equation (9) is derived from the quadratic binding function (Equation (8)).
# (§9) Data were collected in triplicate, averaged, and expressed as mean value ± standard deviation (SD). All graph fitting models were defined and built using OriginPro® 2018.
# [2] = test system: LoVo (human colorectal adenocarcinoma) cell line; experiment: MTS cytotoxicity assay, LoVo cell line; type: cell-based; details: 48 h of incubation
# Protocol: (§10) LoVo, MDA-MB-231 and HUVEC human cell lines were purchased from American Type Culture Collection (ATCC). Cells were routinely maintained in culture either in culture flasks or seeded in plates, using Dulbecco’s modified Eagle medium/nutrient mixture F-12 (DMEM:F12) medium supplemented with […], 10% fetal calf serum (Sigma Aldrich, St. Louis, MO, USA), 100 units/mL penicillin, 100 μg/mL streptomycin and incubated at 37 °C in 5% CO2 humidified atmosphere.
# (§11) Cytotoxicity studies were performed in 96-well microtiter plates with flat bottoms (Falcon, Teterboro, NJ, USA) using the CellTiter 96 Aqueous One Solution Cell Proliferation Assay (Promega, Madison, WI, USA), an MTS-based colorimetric assay. Metabolically active cells have the ability to reduce MTS [3-(4,5-dimethylthiazol-2-yl)-5-(3-carboxymethoxyphenyl)-2-(4-sulfophenyl)-2H-tetrazolium, inner salt], a yellow tetrazolium salt, to a colored formazan that is soluble in the culture medium. Briefly, 15 × 10^3 cells per well were cultured in 100 µL culture medium. After 24 h, adherent cells were treated with different concentrations of the studied compounds, as well as adriamycin (Adr) and cisplatin (Cis-Pt), used as positive controls for 24 h and 48 h, respectively. Each well was then filled with 20 µL of reagent containing MTS and PES (phenazine ethosulfate, a cationic dye with excellent chemical stability that binds to MTS and produces a stable solution). The resulting formazan was determined using a Tecan GENios Spectrophotometer (Tecan US, Durham, NC, USA) by measuring the absorbance at λ = 492 nm after incubation for 4 h at 37 °C with moderate agitation every 15 min. The cytotoxicity tests were performed in triplicate, with results reported as mean values with standard deviations (SD). The cytotoxicity of DMSO was also investigated under the same conditions, and no harmful effect was found at doses less than 1%.
# (§12) Data were expressed as cell viability by comparing with untreated cells considered 100% viable, using the following formula:(1) Cell viability (%)=absorbance of treated cells−absorbance of culture medium/absorbance of untreated cells−absorbance of culture medium
# EB–DNA system (CT-DNA) = experiment: Competitive binding assay with ethidium bromide (EB) through fluorescence spectroscopy; parameters: species or system calf; details: EB 2 µM, CT-DNA 10 µM, compound 0–40 µM
# Protocol: The fluorescence spectra were recorded using 1.6 mL samples containing 10 µM CT-DNA, 2 µM EB, and increasing amounts (0–40 µM with an increment of 5 µM) of tested compounds; the samples were prepared by keeping the components in contact for 10 min at room temperature, under continuous stirring and in the dark. The excitation wavelength was 500 nm, and the spectra were recorded between the wavelengths of 520 and 800 nm. A Jasco FP 6500 fluorometer and quartz cells with a 1 cm route length were employed. The classical Stern–Volmer equation (Equation (3)) was used to interpret the obtained data:(3) F0/F=1+KSV·[Q] F0 and F are the fluorescence intensities of the EB–DNA samples in the absence and presence of the tested compounds, respectively; KSV is the Stern–Volmer constant, which was computed as the slope from the plot of F0/F vs. [Q], where [Q] is the chemical concentration.
# The binding ratio was plotted against the logarithm of the concentration in comparison with a control sample exposed solely to DMSO. (4) y=A1+(A2−A1)×x^n/K50^n+x^n
# For fitting data points, the modified Hill function with offset (Origin®) was used: where y represents the binding ratio (F/F0), x represents the concentration, A1 represents the minimum of y values, A2 represents the maximum of y values, K50 represents the concentration corresponding to 50% binding or the half maximum binding constant, and n represents the Hill coefficient.
# [3] = test system: HUVEC (human umbilical vein endothelial cells); experiment: MTS cytotoxicity assay, HUVEC normal cell line; type: cell-based; details: 24 h of incubation
# Protocol: as §10, §11, §12
# apotransferrin (apo-Tf) = target: T2, apotransferrin (apo-Tf) (Homo sapiens, UniProt P02787); experiment: Apo-Tf fluorescence quenching binding study; details: for Kd: read-out: Kd (dissociation constant), Apo-Tf; for fa (fraction of fluorophore accessible to the quencher), Apo-Tf / Ksv* (Stern–Volmer quenching constant), Apo-Tf: compound 0–8 µM; for Ksv* (Stern–Volmer quenching constant), Apo-Tf: Tris-HCl pH 7.4, 298 K; for quenching effect on apo-Tf fluorescence peak: compound up to 8 µM; for Kq (bimolecular quenching constant), Apo-Tf: from Ksv* with τ0 = 10^−8 s
# T2 construct: purchased Sigma-Aldrich Chemical Co. (Schnelldorf, Germany)
# Protocol: as §1, §2, §3, §4, §5, §6, §7, §8, §9
# T1 sequence (P02768 25-609): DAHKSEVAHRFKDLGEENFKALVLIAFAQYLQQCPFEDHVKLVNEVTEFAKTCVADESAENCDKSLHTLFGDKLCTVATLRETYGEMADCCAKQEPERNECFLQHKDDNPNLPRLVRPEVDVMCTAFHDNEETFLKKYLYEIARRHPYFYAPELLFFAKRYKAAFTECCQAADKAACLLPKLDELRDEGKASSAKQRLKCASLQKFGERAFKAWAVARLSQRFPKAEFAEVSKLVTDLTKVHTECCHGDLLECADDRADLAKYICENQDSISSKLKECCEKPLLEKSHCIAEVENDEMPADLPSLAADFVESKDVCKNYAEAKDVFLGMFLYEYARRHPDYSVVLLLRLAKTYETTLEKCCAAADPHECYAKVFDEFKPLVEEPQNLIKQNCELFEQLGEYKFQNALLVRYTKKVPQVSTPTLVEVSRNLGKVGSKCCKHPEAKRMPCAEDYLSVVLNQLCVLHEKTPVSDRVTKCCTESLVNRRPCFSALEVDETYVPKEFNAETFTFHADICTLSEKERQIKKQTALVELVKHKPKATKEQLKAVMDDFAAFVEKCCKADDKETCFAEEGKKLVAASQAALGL
# T2 sequence (P02787 20-698): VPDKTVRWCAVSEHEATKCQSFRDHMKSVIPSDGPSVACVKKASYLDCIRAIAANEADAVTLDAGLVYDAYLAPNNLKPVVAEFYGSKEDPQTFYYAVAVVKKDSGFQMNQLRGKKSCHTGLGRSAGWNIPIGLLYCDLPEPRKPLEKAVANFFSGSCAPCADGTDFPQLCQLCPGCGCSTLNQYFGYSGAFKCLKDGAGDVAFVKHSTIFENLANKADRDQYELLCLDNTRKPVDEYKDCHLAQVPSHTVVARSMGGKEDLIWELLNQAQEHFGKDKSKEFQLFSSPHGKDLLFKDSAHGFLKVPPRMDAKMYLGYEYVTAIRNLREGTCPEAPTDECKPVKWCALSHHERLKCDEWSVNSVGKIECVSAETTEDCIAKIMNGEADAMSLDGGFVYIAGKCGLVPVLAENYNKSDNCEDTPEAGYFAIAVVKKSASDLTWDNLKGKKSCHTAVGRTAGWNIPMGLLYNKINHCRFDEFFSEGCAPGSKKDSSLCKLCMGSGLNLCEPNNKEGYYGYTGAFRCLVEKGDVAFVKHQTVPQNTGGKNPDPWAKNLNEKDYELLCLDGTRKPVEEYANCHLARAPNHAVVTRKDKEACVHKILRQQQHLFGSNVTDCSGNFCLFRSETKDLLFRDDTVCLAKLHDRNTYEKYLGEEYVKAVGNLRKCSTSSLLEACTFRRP
Structure (SMILES),"Ka (association binding constant), HSA ([1]; HSA 2.5 µM)","n1 (Number of Binding Sites), HSA ([1]; HSA 2.5 µM)","n2 (Hill Coefficient), HSA ([1]; HSA 2.5 µM)",Kd ([1]; HSA 2.5 µM),"fa (fraction of fluorophore accessible to the quencher), HSA ([1]; HSA 2.5 µM)","Ksv* (Stern–Volmer quenching constant), HSA ([1]; HSA 2.5 µM)",IC50 [2],IC50 (μM) LoVo [2],EB Displacement Assay K50 (half maximum binding constant) (EB–DNA system (CT-DNA)),"KSV, Stern–Volmer quenching constant (EB–DNA) (EB–DNA system (CT-DNA))",IC50 [3],"Ka (association binding constant), Apo-Tf (apotransferrin (apo-Tf); apo-Tf 1 µM, 298 K)","n1 (Number of Binding Sites), Apo-Tf (apotransferrin (apo-Tf); apo-Tf 1 µM, 298 K)","Kd (apotransferrin (apo-Tf); apo-Tf 1 µM, 298 K)","fa (fraction of fluorophore accessible to the quencher), Apo-Tf (apotransferrin (apo-Tf); apo-Tf 1 µM, 298 K)","Ksv* (Stern–Volmer quenching constant), Apo-Tf (apotransferrin (apo-Tf); apo-Tf 1 µM)",quenching effect on apo-Tf fluorescence peak (apotransferrin (apo-Tf); apo-Tf 1 µM),"Kq (bimolecular quenching constant), Apo-Tf (apotransferrin (apo-Tf); 298 K)","Kq (bimolecular quenching constant), HSA [1]",other results
"CCn1cc(C(=O)[O-])c(=O)c2ccc(C)nc21.CCn1cc(C(=O)[O-])c(=O)c2ccc(C)nc21.O.O.O.O.[Eu+3].[OH-] [Eu(nal)2, Eu(C12H11N2O3)2(OH)(H2O)·3H2O]",(11.99 ± 1.38) × 10^5 M^−1,1.13 ± 0.01,1.14 ± 0.27,4.63 ± 0.97 µM,1.17 ± 0.04,(1.75 ± 0.11) × 10^5 M^−1,> 200 µM,not toxic,34.75 ± 3.69 µM,8.35 ± 0.13 M^−1 (×10^3),> 200 µM,(1.02 ± 0.13) × 10^4 M^−1,0.80 ± 0.01,7.07 ± 6.13 µM,0.71 ± 0.01,(1.85 ± 0.06) × 10^5 M^−1,41%,1.85e+13 M⁻¹ s⁻¹,,"quenching effect on HSA fluorescence peak ([1]; HSA 2.5 µM, compound up to 8 µM): 67%"
"CCn1cc(C(=O)[O-])c(=O)c2ccc(C)nc21.CCn1cc(C(=O)[O-])c(=O)c2ccc(C)nc21.CCn1cc(C(=O)[O-])c(=O)c2ccc(C)nc21.O.O.O.O.O.O.O.O.[La+3] [La(nal)3, La(C12H11N2O3)3(H2O)2·6H2O]",(27.48 ± 2.10) × 10^5 M^−1,1.16 ± 0.00,1.18 ± 0.08,2.91 ± 0.07 µM,1.12 ± 0.01,(2.75 ± 0.10) × 10^5 M^−1,49.8 ± 7.92 µM,,36.45 ± 16.53 µM,2.48 ± 0.44 M^−1 (×10^3),149 ± 17.9 µM,(1.51 ± 0.72) × 10^4 M^−1,0.86 ± 0.04,8.64 ± 2.22 µM,0.80 ± 0.06,(1.04 ± 0.13) × 10^5 M^−1,31%,1.04e+13 M⁻¹ s⁻¹,2.75e+13 M⁻¹ s⁻¹,"n2 (Hill Coefficient), Apo-Tf (apotransferrin (apo-Tf); apo-Tf 1 µM, 298 K): 1.04 ± 0.19"
"CCn1cc(C(=O)[O-])c(=O)c2ccc(C)nc21.CCn1cc(C(=O)[O-])c(=O)c2ccc(C)nc21.O.[OH-].[Tb+3] [Tb(nal)2, Tb(C12H11N2O3)2(OH)(H2O)·1.5H2O]",(11.52 ± 2.87) × 10^5 M^−1,1.12 ± 0.02,1.52 ± 0.09,3.99 ± 0.14 µM,1.13 ± 0.02,(1.92 ± 0.08) × 10^5 M^−1,> 200 µM,not toxic,34.69 ± 11.18 µM,9.14 ± 0.16 M^−1 (×10^3),> 200 µM,(0.32 ± 0.08) × 10^4 M^−1,0.71 ± 0.02,8.01 ± 4.3 µM,0.65 ± 0.02,(2.23 ± 0.15) × 10^5 M^−1,,2.23e+13 M⁻¹ s⁻¹,1.92e+13 M⁻¹ s⁻¹,
